The supplement of paper PMC8671470

Tests used:
Conditions in all cases: 72 h
BV-173 [1] = experiment: cell viability (% survival relative to DMSO control, bortezomib = 0%); higher = less cytotoxic
In short: (§1)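 Fifteen myeloid leukaemia cell lines (10 AML, 5 CML) were seeded at a density titrated to the linear growth range. They went into 384-well plates with compounds pre-printed at 1, 10, 100, 1000 or 10000 nM in duplicate. After 72 h at 37 °C with 5% CO2, viability was read by CellTiter-Glo luminescence. Values are percent survival, with vehicle set to 100% and a 10 µM positive control to 0%, averaged over the duplicates.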

KG-1 [2] = experiment: as above
In short: as §1

K-562 [3] = experiment: as above
In short: as §1

MOLM-13 [4] = experiment: as above
In short: as §1

ML-2 [5] = experiment: as above
In short: as §1

Mono-Mac-6 [6] = experiment: as above
In short: as §1

KU-812 [7] = experiment: as above
In short: as §1

KCL-22 [8] = experiment: as above
In short: as §1

MV4-11 [9] = experiment: as above
In short: as §1

SHI-1 [10] = experiment: as above
In short: as §1

THP-1 [11] = experiment: as above
In short: as §1

NOMO-1 [12] = experiment: as above
In short: as §1

LAMA-84 [13] = experiment: as above
In short: as §1

HL-60 [14] = experiment: as above
In short: as §1

HEL [15] = experiment: as above
In short: as §1

BV-173 [16] = system: BV-173
In short: (§2)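 For the IC50, dose–response curves were fitted with a log-logistic model. The data came from fifteen myeloid leukaemia cell lines grown in RPMI 1640 at densities in the linear growth range and incubated in 384-well plates for 72 h at 37 °C under 5% CO2. Doses were five tenfold steps from 1 to 10,000 nM in duplicate, and luminescent ATP viability was normalised to vehicle and to a positive control at 10 µM before four-parameter fitting.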

KG-1 [17] = system: KG-1
In short: as §2

K-562 [18] = system: K-562
In short: as §2

MOLM-13 [19] = system: MOLM-13
In short: as §2

ML-2 [20] = system: ML-2
In short: as §2

Mono-Mac-6 [21] = system: Mono-Mac-6
In short: as §2

KU-812 [22] = system: KU-812
In short: as §2

KCL-22 [23] = system: KCL-22
In short: as §2

MV4-11 [24] = system: MV4-11
In short: as §2

SHI-1 [25] = system: SHI-1
In short: as §2

THP-1 [26] = system: THP-1
In short: as §2

NOMO-1 [27] = system: NOMO-1
In short: as §2

LAMA-84 [28] = system: LAMA-84
In short: as §2

HL-60 [29] = system: HL-60
In short: as §2

HEL [30] = system: HEL
In short: as §2

c1cc(-c2cnn3cc(-c4ccc(OCCN5CCCCC5)cc4)cnc23)ccn1 [Dorsomorphin]
cell viability [%]
Conditions | 1 nM | 10 nM | 100 nM | 1000 nM | 10000 nM
BV-173 [1] | 89.8 | 108 | 99.9 | 90.1 | 53.2
HEL [15] | 87.1 | 105 | 99.4 | 103 | 72.6
HL-60 [14] | 113 | 110 | 94.9 | 97.1 | 93.9
K-562 [3] | 94.2 | 97.4 | 93.3 | 92.1 | 93.5
KCL-22 [8] | 108 | 106 | 102 | 94.6 | 37.7
KG-1 [2] | 94.4 | 117 | 98.8 | 99.8 | 50.8
KU-812 [7] | 91.9 | 97.1 | 97.2 | 85.9 | 1.77
LAMA-84 [13] | 96.4 | 98.8 | 96.5 | 96.1 | 28.8
ML-2 [5] | 95.2 | 113 | 96.7 | 88.3 | 44.1
MOLM-13 [4] | 77.6 | 78.5 | 97.5 | 108 | 97.8
MV4-11 [9] | 89.9 | 117 | 97.4 | 99.8 | 89.1
Mono-Mac-6 [6] | 95.3 | 101 | 103 | 42.8 | 6.23
NOMO-1 [12] | 93.2 | 105 | 98.8 | 92.7 | 48.5
SHI-1 [10] | 104 | 102 | 95.6 | 103 | 113
THP-1 [11] | 94.5 | 101 | 101 | 96.2 | 55.6

Conditions | IC50 (cell viability) [µM]
BV-173 [16] | 7.28
HEL [30] | > 10
HL-60 [29] | > 10
K-562 [18] | > 10
KCL-22 [23] | 6.79
KG-1 [17] | > 10
KU-812 [22] | 2.6
LAMA-84 [28] | 6.49
ML-2 [20] | 5.24
MOLM-13 [19] | > 10
MV4-11 [24] | > 10
Mono-Mac-6 [21] | 0.811
NOMO-1 [27] | 6.43
SHI-1 [25] | > 10
THP-1 [26] | > 10

COc1ccc2c(NC(=O)Nc3cccc(C(F)(F)F)n3)ccnc2c1
cell viability [%]
Conditions | 1 nM | 10 nM | 100 nM | 1000 nM | 10000 nM
BV-173 [1] | 104 | 93.6 | 111 | 102 | 87.4
HEL [15] | 116 | 99.2 | 105 | 106 | 108
HL-60 [14] | 86.5 | 129 | 116 | 116 | 98.3
K-562 [3] | 104 | 100 | 95.3 | 93.7 | 103
KCL-22 [8] | 101 | 102 | 110 | 94.9 | 114
KG-1 [2] | 90.7 | 85 | 92 | 93.9 | 120
KU-812 [7] | 116 | 102 | 108 | 109 | 112
LAMA-84 [13] | 102 | 100 | 105 | 100 | 100
ML-2 [5] | 101 | 97.6 | 109 | 122 | 127
MOLM-13 [4] | 105 | 115 | 113 | 108 | 44.5
MV4-11 [9] | 102 | 103 | 101 | 85.7 | 77.2
Mono-Mac-6 [6] | 108 | 92.3 | 95.7 | 94.9 | 97.1
NOMO-1 [12] | 97.4 | 98.2 | 113 | 94.5 | 113
SHI-1 [10] | 93.6 | 109 | 104 | 110 | 85.4
THP-1 [11] | 95.5 | 101 | 105 | 95.2 | 107

Conditions | IC50 (cell viability) [µM]
BV-173 [16] | > 10
HEL [30] | > 10
HL-60 [29] | > 10
K-562 [18] | > 10
KCL-22 [23] | > 10
KG-1 [17] | > 10
KU-812 [22] | > 10
LAMA-84 [28] | > 10
ML-2 [20] | > 10
MOLM-13 [19] | 9.04
MV4-11 [24] | > 10
Mono-Mac-6 [21] | > 10
NOMO-1 [27] | > 10
SHI-1 [25] | > 10
THP-1 [26] | > 10

CCOC(=O)c1sc(NC(=O)c2ccco2)c(SC#N)c1C [CBR-5884]
cell viability [%]
Conditions | 1 nM | 10 nM | 100 nM | 1000 nM | 10000 nM
BV-173 [1] | 100 | 111 | 87.5 | 105 | 80
HEL [15] | 102 | 102 | 98.2 | 104 | 86.5
HL-60 [14] | 103 | 102 | 89.5 | 92.7 | 59.4
K-562 [3] | 89.9 | 105 | 92.7 | 88.9 | 83.7
KCL-22 [8] | 110 | 85.5 | 107 | 105 | 94.6
KG-1 [2] | 90.5 | 83.3 | 103 | 94.3 | 74.9
KU-812 [7] | 93.5 | 101 | 109 | 94.8 | 88.3
LAMA-84 [13] | 89.2 | 102 | 103 | 102 | 99.1
ML-2 [5] | 94.5 | 97.2 | 104 | 99.3 | 60.5
MOLM-13 [4] | 97.2 | 82.9 | 112 | 97.3 | 81.4
MV4-11 [9] | 79.9 | 96.3 | 116 | 88.3 | 51.1
Mono-Mac-6 [6] | 94.9 | 111 | 102 | 103 | 91.1
NOMO-1 [12] | 99.8 | 104 | 97.4 | 100 | 94.5
SHI-1 [10] | 90.4 | 87.1 | 102 | 103 | 81.3
THP-1 [11] | 102 | 97.1 | 98.1 | 94.4 | 100

Conditions | IC50 (cell viability) [µM]
BV-173 [16] | > 10
HEL [30] | > 10
HL-60 [29] | > 10
K-562 [18] | > 10
KCL-22 [23] | > 10
KG-1 [17] | > 10
KU-812 [22] | > 10
LAMA-84 [28] | > 10
ML-2 [20] | > 10
MOLM-13 [19] | > 10
MV4-11 [24] | 7.25
Mono-Mac-6 [21] | > 10
NOMO-1 [27] | > 10
SHI-1 [25] | > 10
THP-1 [26] | > 10
